Test [1] addresses T1, Enoyl-[acyl-carrier-protein] reductase [NADPH] FabI (Staphylococcus aureus) (UniProt Q6GI75).
T1 sequence (whole entry): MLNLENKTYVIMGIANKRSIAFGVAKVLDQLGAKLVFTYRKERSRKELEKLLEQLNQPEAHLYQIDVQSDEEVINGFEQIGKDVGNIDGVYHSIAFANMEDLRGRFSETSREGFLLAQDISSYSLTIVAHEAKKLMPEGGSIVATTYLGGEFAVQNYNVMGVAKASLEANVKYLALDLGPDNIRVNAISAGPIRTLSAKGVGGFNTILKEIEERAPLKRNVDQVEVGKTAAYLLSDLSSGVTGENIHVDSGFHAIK
Briefly: Inhibition of N-terminal his 6 tagged Staphylococcus aureus Fabi (1 to […] residues) expressed in Escherichia coli BL21 at 1 uM incubated for 30 mins in presence of NADPH by fluorescence based microplate reader analysis relative to control.

Test [2] concerns the target T1, Enoyl-[acyl-carrier-protein] reductase [NADPH] FabI (Staphylococcus aureus). Briefly: Inhibition of N-terminal his 6 tagged Staphylococcus aureus Fabi (1 to […] residues) expressed in Escherichia coli BL21 at 10 uM incubated for 30 mins in presence of NADPH by fluorescence based microplate reader analysis relative to control.
For test [3], the target named is T2, Enoyl-[acyl-carrier-protein] reductase [NADPH] FabI (Staphylococcus aureus, UniProt Q6GI75).
T2 sequence (Q6GI75 whole entry): T1 sequence (whole entry)
Briefly: Inhibition of N-terminal his 6 tagged Staphylococcus aureus Fabi (1 to […] residues) expressed in Escherichia coli BL21 incubated for 30 mins in presence of NADPH by fluorescence based microplate reader analysis.

The next test has as its system Acinetobacter baumannii. Briefly: Antimicrobial activity against Acinetobacter baumannii ATCC19606 measured after 24 hrs by CLSI protocol based microdilution method. The test is classed as functional. (In general: Dilution methods test growth across graded concentrations, often in twofold steps.)
For test [4], the system named is Staphylococcus aureus. Kind of test: Antimicrobial activity against […] Staphylococcus aureus NRS271 measured after 24 hrs by CLSI protocol based microdilution method. The test is classed as functional.
Another test deals with Escherichia coli. Kind of test: Antimicrobial activity against Escherichia coli ATCC25922 measured after 24 hrs by CLSI protocol based microdilution method. The test is classed as functional.
The subject of another test is Enterococcus faecalis. Briefly: Antimicrobial activity against Enterococcus faecalis ATCC29212 measured after 24 hrs by CLSI protocol based microdilution method. The test is classed as functional.
For test [5], the system named is Staphylococcus aureus. Kind of test: Antimicrobial activity against methicillin-susceptible Staphylococcus aureus ATCC29213 measured after 24 hrs by CLSI protocol based microdilution method. The test is classed as functional.
A further test deals with Enterococcus faecium. Briefly: Antimicrobial activity against Enterococcus faecium ATCC19434 measured after 24 hrs by CLSI protocol based microdilution method. The test is classed as functional.
In a further test the test system is Pseudomonas aeruginosa. Briefly: Antimicrobial activity against Pseudomonas aeruginosa PAO1 measured after 24 hrs by CLSI protocol based microdilution method. The test is classed as functional.
The subject of test [6] is Staphylococcus aureus. Briefly: Antimicrobial activity against methicillin-susceptible Staphylococcus aureus ATCC25923 measured after 24 hrs by CLSI protocol based microdilution method. The test is classed as functional.
The next test deals with Candida albicans. Briefly: Antimicrobial activity against Candida albicans SC5314 measured after 48 hrs by CLSI protocol based microdilution method. The test is classed as functional.
For test [7], the system named is Staphylococcus aureus. Kind of test: Antimicrobial activity against […] Staphylococcus aureus ATCC33591 measured after 24 hrs by CLSI protocol based microdilution method. The test is classed as functional.
The test system of test [8] is Staphylococcus aureus. Kind of test: Antimicrobial activity against […] Staphylococcus aureus USA300 measured after 24 hrs by CLSI protocol based microdilution method. The test is classed as functional.
Test [9] deals with Staphylococcus aureus. Briefly: Antimicrobial activity against […] Staphylococcus aureus ATCC43300 measured after 24 hrs by CLSI protocol based microdilution method. The test is classed as functional.

For orientation: inhibition means the change of the read-out against control, counted positive when it falls. As usually defined, the IC50 is the midpoint of a concentration-inhibition curve. What is called MIC is the least concentration at which growth counts as inhibited. High values mean weaker potency, low ones greater potency.

Converted amounts (≈) assume the structure as drawn.

For the molecule `Cn1c(C2CC(=O)N(c3cccc(Cl)c3F)C2)nc2ccccc21` (stereo not drawn), the results for the inhibition in test [1] and in [2] were 65.4% and 97.9%, respectively. Moreover, the IC50 in test [3] amounted to 0.579 µM. Also, the MIC was more than 32 µg/mL against Acinetobacter baumannii; 8 µg/mL (≈ 23.3 µM) against Staphylococcus aureus [4]; more than 32 µg/mL against Escherichia coli; more than 32 µg/mL against Enterococcus faecalis; 4 µg/mL (≈ 11.6 µM) in the test with Staphylococcus aureus [5]; more than 32 µg/mL in the test on Enterococcus faecium. Further, the MIC against Pseudomonas aeruginosa is more than 32 µg/mL; against Staphylococcus aureus [6], 4 µg/mL (≈ 11.6 µM); in the test with Candida albicans, more than 32 µg/mL; against Staphylococcus aureus [7] it was 4 µg/mL (≈ 11.6 µM); against Staphylococcus aureus [8] it was 8 µg/mL (≈ 23.3 µM); with Staphylococcus aureus [9], 4 µg/mL (≈ 11.6 µM).
`Cn1c(C2CC(=O)N(c3cccc(Br)c3O)C2)nc2ccccc21` (stereo not drawn): the inhibition in test [1] was 28.5%; in test [2], 94.1%. Besides, the IC50 in [3] is 1.88 µM. Besides, the MIC was more than 32 µg/mL against Acinetobacter baumannii; 32 µg/mL (≈ 82.8 µM) with Staphylococcus aureus [4]; more than 32 µg/mL against Escherichia coli; more than 32 µg/mL in the test on Enterococcus faecalis; 16 µg/mL (≈ 41.4 µM) with Staphylococcus aureus [5]; more than 32 µg/mL with Enterococcus faecium. Also, the MIC against Pseudomonas aeruginosa was more than 32 µg/mL; against Staphylococcus aureus [6] it was 32 µg/mL (≈ 82.8 µM); in the test on Candida albicans it was more than 32 µg/mL; in the test with Staphylococcus aureus [7] it was 16 µg/mL (≈ 41.4 µM); in the test on Staphylococcus aureus [8], 16 µg/mL (≈ 41.4 µM); in the test on Staphylococcus aureus [9], 16 µg/mL (≈ 41.4 µM).
On to `Cn1c(C2CC(=O)N(c3cccc(Cl)c3)C2)nc2ccccc21` (stereo not drawn), for which the inhibition in [1] came out at 12.8%; in [2], 69.6%. The IC50 in [3] amounted to 3.53 µM. Besides, the MIC in the test with Acinetobacter baumannii was more than 32 µg/mL; with Staphylococcus aureus [4], 32 µg/mL (≈ 98.2 µM); against Escherichia coli, more than 32 µg/mL; against Enterococcus faecalis it was more than 32 µg/mL; with Staphylococcus aureus [5], 32 µg/mL (≈ 98.2 µM); in the test with Enterococcus faecium, more than 32 µg/mL. Also, the MIC in the test with Pseudomonas aeruginosa was more than 32 µg/mL; in the test with Staphylococcus aureus [6] it was more than 32 µg/mL; in the test on Candida albicans, more than 32 µg/mL; in the test on Staphylococcus aureus [7], 32 µg/mL (≈ 98.2 µM); in the test with Staphylococcus aureus [8], 32 µg/mL (≈ 98.2 µM); in the test on Staphylococcus aureus [9], more than 32 µg/mL.
Regarding `Cc1cccc(N2CC(c3nc4ccccc4n3C)CC2=O)c1Cl` (stereo not drawn), the inhibition in test [1] stood at 47.3%; in [2] it was 95.2%. The IC50 in [3] worked out at 1.18 µM. Further, the MIC in the test with Acinetobacter baumannii was more than 32 µg/mL; against Staphylococcus aureus [4] it was 8 µg/mL (≈ 23.5 µM); in the test with Escherichia coli it was more than 32 µg/mL; with Enterococcus faecalis, more than 32 µg/mL; against Staphylococcus aureus [5] it was 8 µg/mL (≈ 23.5 µM); in the test on Enterococcus faecium it was more than 32 µg/mL. Also, the MIC against Pseudomonas aeruginosa was more than 32 µg/mL; in the test with Staphylococcus aureus [6], 16 µg/mL (≈ 47.1 µM); with Candida albicans, more than 32 µg/mL; with Staphylococcus aureus [7] it was 8 µg/mL (≈ 23.5 µM); against Staphylococcus aureus [8], 16 µg/mL (≈ 47.1 µM); in the test on Staphylococcus aureus [9], 8 µg/mL (≈ 23.5 µM).
`CCCn1c(C2CC(=O)N(c3cccc(Br)c3C)C2)nc2ccccc21` (stereo not drawn): the inhibition was 57.6% in test [1] and 99.5% in [2]. Also, the IC50 in test [3] amounted to 0.745 µM. In addition, the MIC was more than 32 µg/mL against Acinetobacter baumannii; 8 µg/mL (≈ 19.4 µM) in the test with Staphylococcus aureus [4]; more than 32 µg/mL in the test on Escherichia coli; more than 32 µg/mL with Enterococcus faecalis; 4 µg/mL (≈ 9.7 µM) in the test on Staphylococcus aureus [5]; more than 32 µg/mL against Enterococcus faecium. Further, the MIC with Pseudomonas aeruginosa is more than 32 µg/mL; against Staphylococcus aureus [6], 4 µg/mL (≈ 9.7 µM); in the test with Candida albicans, more than 32 µg/mL; in the test with Staphylococcus aureus [7], 8 µg/mL (≈ 19.4 µM); against Staphylococcus aureus [8] it was 8 µg/mL (≈ 19.4 µM); in the test on Staphylococcus aureus [9] it was 4 µg/mL (≈ 9.7 µM).
On to `Cn1ccc2c(N3CC(c4nc5ccccc5n4C)CC3=O)cccc21` (stereo not drawn), for which the results for the inhibition in test [1] and in [2] were 9.8% and 62.1%, respectively. Moreover, in test [3], the IC50 is 8.33 µM. Further, the MIC with Acinetobacter baumannii, in the test on Staphylococcus aureus [4], with Escherichia coli, in the test with Enterococcus faecalis, in the test on Staphylococcus aureus [5] and against Enterococcus faecium was more than 32 µg/mL each time. For the same molecule, the MIC with Pseudomonas aeruginosa, against Staphylococcus aureus [6], against Candida albicans, with Staphylococcus aureus [7], against Staphylococcus aureus [8] and against Staphylococcus aureus [9] was more than 32 µg/mL each time.
For the molecule `Cc1cccc(C(=O)NCCNC(=O)c2nc3ccccc3n2C)c1C`, the inhibition in [1] came to 1.7%; in test [2] it was 3.7%. Also, the MIC in the test with Acinetobacter baumannii, against Staphylococcus aureus [4], in the test on Escherichia coli, with Enterococcus faecalis, against Staphylococcus aureus [5] and with Enterococcus faecium was more than 32 µg/mL in each case. Besides, the minimal inhibitory concentration (MIC) against Pseudomonas aeruginosa, in the test with Staphylococcus aureus [6], with Candida albicans, in the test with Staphylococcus aureus [7], against Staphylococcus aureus [8] and in the test with Staphylococcus aureus [9] was more than 32 µg/mL each time.
With `COc1ccc(N2CC(c3nc4ccccc4n3C)CC2=O)cc1OC` (stereo not drawn), the inhibition in test [1] came out at 1.6%; in test [2] it was 22.5%. For the same molecule, the MIC against Acinetobacter baumannii, against Staphylococcus aureus [4], in the test on Escherichia coli, against Enterococcus faecalis, against Staphylococcus aureus [5] and with Enterococcus faecium was more than 32 µg/mL each time. Also, the MIC in the test with Pseudomonas aeruginosa, in the test with Staphylococcus aureus [6], in the test on Candida albicans, in the test on Staphylococcus aureus [7], against Staphylococcus aureus [8] and in the test with Staphylococcus aureus [9] was more than 32 µg/mL throughout.
Consider `Cn1c(C2CC(=O)N(c3ccc4ccccc4c3)C2)nc2ccccc21` (stereo not drawn), for which the inhibition worked out at 2.8% in [1] and 51.7% in [2]. The MIC in the test on Acinetobacter baumannii, against Staphylococcus aureus [4], in the test on Escherichia coli, in the test on Enterococcus faecalis, against Staphylococcus aureus [5] and with Enterococcus faecium was more than 32 µg/mL throughout. Moreover, the MIC in the test with Pseudomonas aeruginosa, in the test on Staphylococcus aureus [6], in the test on Candida albicans, against Staphylococcus aureus [7], with Staphylococcus aureus [8] and in the test on Staphylococcus aureus [9] was more than 32 µg/mL throughout.
Take `Cn1c(C(=O)Nc2cccc(C(=O)NCc3ccccc3)c2)nc2ccccc21`: the figures for the inhibition in [1] and in test [2] were 6.8% and 4%, respectively. Also, the MIC against Acinetobacter baumannii, against Staphylococcus aureus [4], against Escherichia coli, with Enterococcus faecalis, with Staphylococcus aureus [5] and against Enterococcus faecium was more than 32 µg/mL throughout. The MIC in the test on Pseudomonas aeruginosa, against Staphylococcus aureus [6], in the test with Candida albicans, in the test with Staphylococcus aureus [7], in the test on Staphylococcus aureus [8] and against Staphylococcus aureus [9] was more than 32 µg/mL each time.
On to `Cn1c(C2CC(=O)N(c3ccccc3-c3ccccc3)C2)nc2ccccc21` (stereo not drawn), for which the inhibition came to 2.3% in test [1] and 5.8% in [2]. The MIC with Acinetobacter baumannii, in the test with Staphylococcus aureus [4], against Escherichia coli, against Enterococcus faecalis, in the test with Staphylococcus aureus [5] and in the test with Enterococcus faecium was more than 32 µg/mL in each case. Besides, the MIC against Pseudomonas aeruginosa, with Staphylococcus aureus [6], in the test with Candida albicans, against Staphylococcus aureus [7], against Staphylococcus aureus [8] and in the test on Staphylococcus aureus [9] was more than 32 µg/mL throughout.
Consider `Cc1cccc(N2CCC(c3nc4ccccc4n3C)C2)c1C` (stereo not drawn), for which the results for the inhibition in test [1] and in [2] were 5.4% and 6.2%, respectively. Besides, the MIC against Acinetobacter baumannii, in the test on Staphylococcus aureus [4], in the test with Escherichia coli, against Enterococcus faecalis, against Staphylococcus aureus [5] and with Enterococcus faecium was more than 32 µg/mL throughout. In addition, the MIC in the test on Pseudomonas aeruginosa, with Staphylococcus aureus [6], against Candida albicans, with Staphylococcus aureus [7], against Staphylococcus aureus [8] and with Staphylococcus aureus [9] was more than 32 µg/mL throughout.
For the molecule `Cc1cccc(NC(=O)c2cccc(NC(=O)c3nc4ccccc4n3C)c2)c1C`, the results for the inhibition in test [1] and in test [2] were 3.7% and 5%, respectively. The MIC against Acinetobacter baumannii, against Staphylococcus aureus [4], against Escherichia coli, in the test with Enterococcus faecalis, in the test with Staphylococcus aureus [5] and in the test with Enterococcus faecium was more than 32 µg/mL in each case. The MIC against Pseudomonas aeruginosa, in the test on Staphylococcus aureus [6], in the test on Candida albicans, with Staphylococcus aureus [7], in the test on Staphylococcus aureus [8] and in the test on Staphylococcus aureus [9] was more than 32 µg/mL throughout.

The values are drawn from ChEMBL document CHEMBL5500393, “Discovery and Optimization of Novel SaFabI Inhibitors as Specific Therapeutic Agents for MRSA Infection” (J Med Chem, 2024).
